According to patent US6004933A, “Cysteine protease inhibitors” (Cortech Inc., priority 1998, dated 1999):

Tests used:
picornain 2A protease = assay: Inhibitory activity against picornain 2A protease; assay type: biochemical; conditions: at 100 μM
cathepsin L = target: T1, cathepsin L (Homo sapiens, UniProt P07711); assay: Cathepsin L inhibition, fluorometric assay with Cbz-Phe-Arg-NHMec; assay type: biochemical; conditions: human enzyme; IC50 at substrate << Km taken as Ki; pH 5.5
T1 construct: purchased Athens Research and Technology Inc. (Athens,Ga.)
T1 sequence (P07711 114-333): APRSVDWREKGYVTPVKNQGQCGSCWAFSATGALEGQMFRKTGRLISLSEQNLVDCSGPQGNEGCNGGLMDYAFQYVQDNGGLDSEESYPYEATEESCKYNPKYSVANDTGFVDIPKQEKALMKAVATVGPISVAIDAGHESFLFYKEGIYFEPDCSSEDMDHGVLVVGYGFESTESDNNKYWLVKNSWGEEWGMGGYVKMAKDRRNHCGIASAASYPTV
From the text: (§1) The enzyme cathepsin B (E.C. 3.4.22.01) was obtained from Calbiochem (San Diego, Calif.); cathepsin L (E.C. 3.4.22.15) from Athens Research and Technology Inc. (Athens,Ga.); and papain (E.C. 3.4.22.02) from Sigma (St. Louis, Mo.).
(§2) Cbz-Phe-Arg-NHMec (--NHMec: 7-(4-methyl)coumarylamide) was obtained from BachemCalifornia, Inc. (Torrance, Calif.). All other reagents were obtained from Sigma.
(§3) The enzymes used in enzyme assays with methylcoumarylamides were activated as described elsewhere (Barret, et al., Methods Enzymol. 80:535-561 (1981); Bromme, et al., Biochem. J, 264: 475-481 (1989). Cathepsin L was assayed in 0.34 M sodium acetate buffer, pH 5.5, containing 0.1% (v/v) Brij 35, 2.5 mM dithiothreitol (DTT) and 5 mM Na2 -EDTA. Cathepsin B was assayed under the same conditions, except that the buffer was adjusted to pH 6. Papain was assayed in 50 mM sodium phosphate buffer, pH 6.8, containing 0.2 M sodium chloride, 2 mM DTT, 1 mM Na2 -EDTA and 0.025% Brij 35 (v/v).
(§4) Initial velocities of enzymatic reactions were measured spectrofluorometrically (λex =370 nm, λem 460 nm) with a Quanta Master QM1 (Photon Technologies International, South Brunswick, N.J.). Stock solutions of the enzymes were diluted into the buffer, equilibrated at room temperature, and preincubated without or with increasing concentrations of inhibitors. The reactions were started by addition of substrate. A total of 4 to 8 inhibitor concentrations were used to determine IC50 values. In all cases the substrate concentrations were much smaller than the Km value, and the IC50 values measured approximated the Ki directly (Cheng, et al., Biochemical Pharmacology, 22:3099-3108 (1973)).

cathepsin B = target: T2, cathepsin B (Homo sapiens, UniProt P07858); assay: Cathepsin B inhibition, fluorometric assay with Cbz-Phe-Arg-NHMec; assay type: biochemical; conditions: human enzyme; IC50 at substrate << Km taken as Ki; pH 6
T2 construct: purchased Calbiochem (San Diego, Calif.)
From the text: as §1, §2, §3, §4

papain = target: T3, papain (Carica papaya, UniProt P00784); assay: Papain inhibition, fluorometric assay with Cbz-Phe-Arg-NHMec; assay type: biochemical; conditions: IC50 at substrate << Km taken as Ki; pH 6.8
T3 construct: purchased Sigma (St. Louis, Mo.)
T3 sequence (P00784 134-345): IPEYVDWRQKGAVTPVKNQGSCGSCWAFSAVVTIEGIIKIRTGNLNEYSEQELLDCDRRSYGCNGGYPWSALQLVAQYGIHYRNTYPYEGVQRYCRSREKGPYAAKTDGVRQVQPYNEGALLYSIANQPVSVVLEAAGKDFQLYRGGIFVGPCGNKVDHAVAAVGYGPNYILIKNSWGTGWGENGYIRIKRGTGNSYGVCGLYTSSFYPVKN
From the text: as §1, §2, §3, §4

gingipain R (RGP) = assay: Gingipain assay, BAPNA cleavage at 405 nm; assay type: biochemical, human; conditions: 2 mM BAPNA, cell marked (IC50) in the Ki [nM] table
Experimental: All assays were carried out in a 96 well microtiter plate reader and cleavage of BAPNA (Nα-benzoyl-DL-arginine-p-nitroanilide hydrochloride) was detected at 405 nm.
All assays were performed as follows: 180 μl assay buffer (50 mM Tris, […], at pH 7.6) was mixed with 10 μl gingipain R (RGP). The mixture was incubated for 5 min. at room temperature to reduce and activate RGP. 10 μl of each inhibitor were added at various concentrations. These mixtures were incubated for 10 min. at room temperature to allow the inhibitors to complex with RGP. 50 μl of 10 mM BAPNA substrate was added. A two minute assay was performed with a final volume of 250 μl, and a final BAPNA concentration of 2 mM.
For this reason, two minute assays were performed whereby the Vmax in mOD/min change in absorbance at 405 nm was used as the initial velocity reading. In order to titrate RGP against leupeptin and to determine % activity, these velocity readings were transformed on a percent scale where the 100% control contained no inhibitor. The initial velocity values were also entered into Graphpad Prism regression program along with the various inhibitor concentrations to obtain the IC50 values. All data represents the minimum of duplicates, and at times triplicate sets.

ICE (Caspase 1) = target: T4, ICE (Caspase 1) (Homo sapiens, UniProt P29466); assay: THP-1 assay: IL-1β release after LPS stimulation (assay for ICE inhibition); assay type: cell-based
T4 construct: endogenous in cells; host or cells: THP-1
T4 sequence (P29466 120-297 limits assumed): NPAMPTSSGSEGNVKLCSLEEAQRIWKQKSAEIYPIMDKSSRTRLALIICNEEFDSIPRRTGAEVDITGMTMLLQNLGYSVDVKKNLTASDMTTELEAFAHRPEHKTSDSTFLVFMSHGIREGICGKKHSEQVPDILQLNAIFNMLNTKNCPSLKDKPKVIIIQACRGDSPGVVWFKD
T4 sequence (P29466 317-404 limits assumed): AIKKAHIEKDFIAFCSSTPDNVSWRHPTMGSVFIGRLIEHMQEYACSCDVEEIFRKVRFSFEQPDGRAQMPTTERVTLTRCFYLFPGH
From the text: To examine the ability of the caspase family inhibitors, CQ-0010 and CQ-0011, to inhibit human IL-1β production, two different assays were employed. In the first, the human monocytic cell line, THP-1, was stimulated with E. coli lipopolysaccharide (LPS serotype 0127-88; Sigma Chemical Co., St. Louis, Mo.) in the presence and absence of the inhibitors. This cell line synthesizes and secretes IL-1β and TNFα as well as other cytokines upon LPS stimulation. The second assay used freshly-isolated human whole blood similarly stimulated with LPS.
Two×10^6 THP-1 cells were added to 24 well plates in 1 ml RPMI supplemented with 1% FCS, glutamine and 5×10^-5 M mercaptoethanol. Two-fold serial dilutions of the inhibitors, CQ-0010, CQ-0011 and the commmercially available Ac-YVAD-CHO (Biomol Research Laboratories Inc., Plymouth Meeting, Pa.), were preincubated with the cells for 15 min at 37° C. LPS was then added to a final concentration of 1 ug/ml and the plates incubated for 4 hr at 37° C. All incubations were carried out in a humidified incubator with 5% CO2 in air.
Supernatants were harvested after 4 hr and assayed by ELISA for the presence of TNFα and IL-1β using commercially available kits (PerSeptive Biosystems, Framingham, Mass. and R&D Systems, Minneapolis, Minn., respectively).

granzyme B = granzyme B (Homo sapiens, UniProt P10144); assay: Granzyme B inhibition, photometric, Succ-AAPD-pNA; assay type: biochemical; conditions: 20 μM Succ-AAPD-pNA, 1 mM DTT
Chain of granzyme B (P10144 21-247, species assumed): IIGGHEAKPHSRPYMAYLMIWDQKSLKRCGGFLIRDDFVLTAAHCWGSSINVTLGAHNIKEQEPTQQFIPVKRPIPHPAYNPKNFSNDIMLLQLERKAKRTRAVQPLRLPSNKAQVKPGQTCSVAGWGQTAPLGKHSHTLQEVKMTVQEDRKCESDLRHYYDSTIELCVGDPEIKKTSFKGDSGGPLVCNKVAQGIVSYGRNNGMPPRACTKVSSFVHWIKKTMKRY
Experimental: (§5) Inhibition constants were measured photometrically for YAMA (caspase 3), Lap3 (caspase 7), FLICE (caspase 8), Mch2 (caspase 6) and granzyme B. The buffer used for all enzymes consisted of 50 mM Hepes, 100 mM sodium chloride, 10% (v/v) sucrose, 0.1% (v/v) CHAPS and 10 mM dithiothreitol (DTT). In the case of granzyme B, only 1 mM DTT was used.
(§6) Enzymes were incubated at 37° C. for 10 minutes in 100 μL well plates and synthetic substrate and inhibitor were added simultaneously. Final substrate concentration was 20 μM in all cases. The synthetic substrate Ac-DEVD-pNA was used for all caspases and Succ-AAPD-pNA was used for granzyme B. The appearance of product was monitored over 10 minutes at 410 nm using a Spectromax 340 and IC50 curves were calculated from the initial slopes at varying inhibitor concentrations and inhibition constants were calculated.

YAMA (CPP32, Caspase 3) = target: T5, YAMA (CPP32, Caspase 3) (Homo sapiens, UniProt P42574); assay: Caspase inhibition, photometric, Ac-DEVD-pNA; assay type: biochemical; conditions: 20 μM Ac-DEVD-pNA, 37° C.
T5 sequence (P42574 29-175 limits assumed): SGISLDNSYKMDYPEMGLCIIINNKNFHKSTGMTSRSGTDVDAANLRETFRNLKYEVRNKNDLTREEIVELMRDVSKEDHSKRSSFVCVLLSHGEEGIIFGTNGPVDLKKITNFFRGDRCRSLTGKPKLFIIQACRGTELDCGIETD
T5 sequence (P42574 176-277 limits assumed): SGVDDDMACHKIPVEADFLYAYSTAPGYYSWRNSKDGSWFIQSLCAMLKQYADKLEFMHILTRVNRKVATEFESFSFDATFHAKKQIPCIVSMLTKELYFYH
Experimental: as §5, §6

Lap3 (Mch3, Caspase 7) = target: T6, Lap3 (Mch3, Caspase 7) (Homo sapiens, UniProt P55210); assay: Caspase inhibition, photometric, Ac-DEVD-pNA; assay type: biochemical; conditions: 20 μM Ac-DEVD-pNA, 37° C.
T6 sequence (P55210 24-198 limits assumed): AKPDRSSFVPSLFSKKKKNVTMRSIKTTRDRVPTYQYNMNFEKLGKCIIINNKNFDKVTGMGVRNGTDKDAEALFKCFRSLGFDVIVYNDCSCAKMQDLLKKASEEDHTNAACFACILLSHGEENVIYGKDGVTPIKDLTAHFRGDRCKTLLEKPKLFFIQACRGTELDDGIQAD
T6 sequence (P55210 207-303 limits assumed): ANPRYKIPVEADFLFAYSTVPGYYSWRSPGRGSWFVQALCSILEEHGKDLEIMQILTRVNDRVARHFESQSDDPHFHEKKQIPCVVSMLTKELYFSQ
Experimental: as §5, §6

Mch2 (Caspase 6) = target: T7, Mch2 (Caspase 6) (Homo sapiens, UniProt P55212); assay: Caspase inhibition, photometric, Ac-DEVD-pNA; assay type: biochemical; conditions: 20 μM Ac-DEVD-pNA, 37° C.
T7 sequence (P55212 24-179 limits assumed): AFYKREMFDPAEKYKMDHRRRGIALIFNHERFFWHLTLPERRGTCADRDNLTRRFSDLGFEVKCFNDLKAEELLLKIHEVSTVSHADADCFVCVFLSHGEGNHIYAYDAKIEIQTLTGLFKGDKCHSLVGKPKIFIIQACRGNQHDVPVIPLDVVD
T7 sequence (P55212 194-293 limits assumed): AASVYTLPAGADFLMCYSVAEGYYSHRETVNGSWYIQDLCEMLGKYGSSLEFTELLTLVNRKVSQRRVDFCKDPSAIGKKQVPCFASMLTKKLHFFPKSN
Experimental: as §5, §6

FLICE (Mch5, Caspase 8) = FLICE (Mch5, Caspase 8) (Homo sapiens, UniProt Q14790); assay: Caspase inhibition, photometric, Ac-DEVD-pNA; assay type: biochemical; conditions: 20 μM Ac-DEVD-pNA, 37° C.; read-out: Ki, FLICE (Mch5, Caspase 8)
Chain of FLICE (Mch5, Caspase 8) (Q14790 217-374 limits assumed, species assumed): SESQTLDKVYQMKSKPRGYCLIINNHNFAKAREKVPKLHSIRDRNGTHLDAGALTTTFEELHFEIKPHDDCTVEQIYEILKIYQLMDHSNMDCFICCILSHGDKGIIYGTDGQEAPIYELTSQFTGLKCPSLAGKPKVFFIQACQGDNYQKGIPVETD
Chain of FLICE (Mch5, Caspase 8) (Q14790 385-479 limits assumed, species assumed): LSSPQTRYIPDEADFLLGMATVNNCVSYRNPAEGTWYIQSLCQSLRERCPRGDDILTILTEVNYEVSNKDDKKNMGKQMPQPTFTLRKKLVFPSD
Experimental: as §5, §6

| Molecule | inhibition of picornain 2A protease (picornain 2A protease) [%] | Ki (cathepsin L) [nM] | Ki (cathepsin B) [nM] | Ki (papain) [nM] | further results |
| --- | --- | --- | --- | --- | --- |
| CC(C)[C@H](NC(=O)CCC(=O)OC(C)(C)C)C(=O)N1CCC[C@H]1C(=O)NC(Cc1ccccc1)C(=O)c1noc(Cc2cccc(C(F)(F)F)c2)n1 (stereo partly drawn) [CE-2060, (t-butoxysuccinyl)-L-valyl-N-[1-[3-[5-(3-trifluoromethylbenzyl)-1,2,4-oxadiazolyl]carbonyl]-2-benzylidone]-L-prolinamide] | 100 | – | – | – | – |
| Cc1cccc(Cc2nnc(C(=O)C(NC(=O)[C@@H]3CCCN3C(=O)[C@@H](NC(=O)OCc3ccccc3)C(C)C)C(C)C)o2)c1 (stereo partly drawn) [CE-2072, (Benzyloxycarbonyl)-L-valyl-N-[1-(2-[5-(3-methylbenzyl)-1,3,4-oxadiazolyl]carbonyl)-2-(S)-methylpropyl]-L-prolinamide] | 100 | – | – | – | – |
| Cc1cccc(Cc2nnc(C(=O)[C@@H](NC(=O)[C@H](Cc3ccccc3)NC(=O)[C@@H](CC(=O)O)CC(C)C)C(C)C)o2)c1 [CM-0019B, [[2-[5-(3-methylbenzyl)-1,3,4-oxadiazolyl]carbonyl]-2-(S)-methylpropyl]-L-phenylalanamide-(3R)-(isobutyl)succinic acid] | – | ~100 | 3000 | 85 | – |
| CC(=O)N[C@@H](CC(C)C)C(=O)N[C@@H](CC(C)C)C(=O)NC(CCCN=C(N)N)C(=O)c1nnc(-c2ccccc2)o1 (stereo partly drawn) [CQ-0002] | – | 6 ± 0.98 | 324 ± 46 | 1200 | IC50 (gingipain R (RGP)): 28 nM |
| CC(=O)N[C@@H](CC(C)C)C(=O)N[C@@H](CC(C)C)C(=O)NC(C)C(=O)c1noc(C)n1 (stereo partly drawn) [CQ-0004, Acetyl-L-leucyl-N-[1-[3-[5-methyl]-1,2,4-oxadiazolyl]carbonyl]-ethyl-L-leucyl amide] | – | 61 ± 14 | 27200 ± 1900 | 25600 ± 5340 | – |
| CC(=O)N[C@@H](CC(C)C)C(=O)N[C@@H](CC(C)C)C(=O)NC(CCCN=C(N)N)C(=O)c1noc(C)n1 (stereo partly drawn) [CQ-0008, Acetyl-L-leucyl-N-[1-[3-[5-methyl-1,2,4-oxadiazolyl]carbonyl]-4-(guanidino)-butyl]-L-leucyl amide] | – | 7.13 ± 0.32 | 1240 ± 182 | 8590 ± 1860 | – |
| CC(=O)N[C@@H](CC(=O)O)C(=O)N[C@H](C(=O)N[C@@H](CCC(=O)O)C(=O)NC(CC(=O)O)C(=O)c1nnc(-c2ccccc2)o1)C(C)C (stereo partly drawn) [CQ-0011, Acetyl-L-Aspartyl-Valyl-N-[1-[2-[(5-phenyl)-1,3,4-oxadiazolyl]carbonyl]-2-(carboxy)-ethyl]-L-glutamyl amide] | – | – | – | – | IC50 (ICE (Caspase 1); LPS 1 ug/ml, 4 hr, ELISA, read-out: IC50 of reduction of IL1β release from THP1 cell line): 3000 nM; potency in inhibiting IL1β production relative to CQ-0010 (fold less) (ICE (Caspase 1); THP-1 cells (FIG. 1; Table 4)): approximately 10 fold; Ki, Granzyme (granzyme B): Not Active; Ki (YAMA (CPP32, Caspase 3)): ≤ 100 nM; Ki (Lap3 (Mch3, Caspase 7)): ≤ 30 nM; Ki (Mch2 (Caspase 6)): 6700 nM; Ki (FLICE (Mch5, Caspase 8)): ≤ 30 nM |
| CC(=O)N[C@@H](CC(C)C)C(=O)N[C@@H](CC(C)C)C(=O)N[C@H](C=O)CCCNC(=N)N [Leupeptin, reference compound] | – | 0.62 ± 0.1 | 6.1 ± 1.2 | 1 ± 0.06 | IC50 (gingipain R (RGP)): 20.8 nM |
| Carboxysuccinyl-L-valyl-N-[1-[3-[5-(3-trifluoromethylbenzyl)- 1,2,4-oxadiazolyl]carbonyl]-2-benzylidone]-L-prolinamide [CE-2061] | 100 | – | – | – | – |
